{"source": "patent US5472628A", "about": "“Liquid detergents with an aryl acid for inhibition of proteolytic enzyme” (The Procter & Gamble Company, priority 1994, dated 1995)", "origin": "cited, not measured here", "target": "subtilisin", "conditions": "quoted in the description, read-out: Ki (inhibition constants of boronic acids for subtilisin)"}
{"smiles": "OB(O)c1ccc(Br)cc1", "note": "[4-bromobenzene boronic acid]", "values": [{"measurement": "Ki", "value": 10, "unit": "µM"}]}
